Measured values published in PMC6017654, “Ionic Liquid-Promoted Synthesis of Novel Chromone-Pyrimidine Coupled Derivatives, Antimicrobial Analysis, Enzyme Assay, Docking Study and Toxicity Study” (Molecules : A Journal of Synthetic Chemistry and Natural …, 2018).
≈ marks a conversion by molar mass, not a printed value. Like-named read-outs stand apart in the source and are kept apart here.

What was measured:
DdlB from E.coli = DdlB from E.coli (Escherichia coli, UniProt P07862); assay: D-Alanine-D-alanine ligase (DdlB) enzyme inhibition, malachite green method; assay type: biochemical; details: 37 °C, 30 min incubation, 5% DMSO
Description: The key enzyme involved in the peptidoglycan biosynthesis is D-alanine-D-alanine ligase (Ddl), making it an important target for drug discovery. Inhibition of DdlB as an essential enzyme in either Gram-positive or Gram-negative organisms leads to the loss of cell shape and integrity followed by bacterial death. The synthesized derivatives 4(a–f) and 6(a–f) were tested for their inhibitory activity on DdlB from E.coli. The results are presented as IC50 values.
The D-Ala-adding activity of DdlB ligase was monitored by the detection of orthophosphate generated during the reaction based on the colorimetric malachite green method described by Walsh et al.. […] All the compounds were soluble in the assay mixture containing 5% DMSO. After 30 min of incubation, 100 µL Biomol reagent was added. After 5 min, absorbance was read at 650 nm. Residual activity was calculated with respect to a similar assay without inhibitor. To exclude possible non-specific (promiscuous) inhibitors, representative compounds 4(a–f) and 6(a–f) were also tested in the presence of Tween (0.003%), Triton X-114 (0.005%), and SDS (420 µM), as described by McGovern et al.. No significant differences were found when compared to measurements without detergents.

Escherichia coli 1411 = assay: In vitro antibacterial activity (MIC100, two fold serial dilution, NCCLS); assay type: cell-based; details: read-out: MIC100
Description: (§1) All the synthesized compounds 4(a–f) and 6(a–f) were screened for their in vitro antibacterial activity against Staphylococcus aureus (NCIM-2901), Escherichia coli 1411 (standard laboratory strains) and Escherichia coli SM1411 (an acrAB deficient derivative of 1411). Minimum inhibitory concentration (MIC100) values were determined using methods recommended by National Committee for Clinical Laboratory Standards (NCCLS). Dimethyl sulfoxide (DMSO) was used as solvent control.
(§2) All the synthesized compounds 4(a–f) and 6(a–f) were screened for their in vitro antibacterial activity against Staphylococcus aureus (NCIM-2901) and Escherichia coli 1411 (standard laboratory strains) and Escherichia coli SM1411 (an acrAB deficient derivative of 1411). Minimum inhibitory concentration (MIC100) values were determined using the method recommended by National Committee for Clinical Laboratory Standards (NCCLS). In vitro antibacterial activities of the synthesized compounds 4(a–f) and 6(a–f) were tested in Nutrient Broth (NB) for Bacteria by the two fold serial dilution method. Seeded broth (broth containing microbial spores) was prepared in NB from 24 h old bacterial cultures on nutrient agar (Hi-media) at 37 ± 1 °C. The bacterial suspension was adjusted with sterile saline to a concentration of […]. The synthesized compounds and standard drug D-cycloserine were prepared by two fold serial dilutions to obtain the required concentrations. The tubes were incubated in BOD incubators at 37 ± 1 °C for bacteria. The MICs were recorded by visual observations after 24 h (for bacteria) of incubation.

[1] = system: Escherichia coli SM1411 (an acrAB deficient derivative of 1411); assay: as above; assay type: cell-based; details: 24 h, read-out: MIC100
Description: as §1, §2

[2] = system: Staphylococcus aureus (NCIM-2901); assay: as above; assay type: cell-based; details: for MIC: Staphylococcus aureus
Description: as §1, §2

A. flavus = assay: In vitro antifungal activity (MIC100, CLSI/NCCLS); assay type: cell-based; details: Aspergillus flavus; A. fla.; average of three readings; read-out: MIC 100
Description: (§3) The newly synthesized derivatives 4(a–f) and 6(a–f) were screened for their in vitro antifungal activity against different yeast and filamentous fungal pathogens. Minimum inhibitory concentration (MIC100) values for in vitro antifungal activity were determined by the methods recommended by National Committee for Clinical Laboratory Standards (NCCLS). Miconazole was used as standard drug. Dimethyl sulfoxide (DMSO) was used as solvent control.
(§4) In vitro antifungal activity was determined as per CLSI (formerly, NCCLS) guidelines. […] The medium yeast nitrogen base was dissolved in phosphate buffer pH 7 and it was autoclaved at 110 °C for 10 min. With each set a growth control without the antifungal agent and solvent control DMSO were included. The fungal strains were freshly sub cultured on to Sabouraud dextrose agar (SDA) and incubated at 25 °C for 72 h. The fungal cells were suspended in sterile distilled water and diluted to get 10^5 cells/mL. Further, ten microlitres of the standardized suspension was inoculated onto the control plates and the media incorporated with the antifungal agents. The inoculated plates were incubated at 25 °C for 48 h. The readings were taken at the end of 48 h and 72 h. The MIC was the lowest concentration of drug preventing growth of macroscopically visible colonies on drug containing plates when there was visible growth on the drug free control plates.

Aspergillus fumigates = assay: In vitro antifungal activity (MIC100, CLSI/NCCLS); assay type: cell-based; details: A. fum., average of three readings, read-out: MIC 100
Description: as §3, §4

Aspergillus niger = assay: In vitro antifungal activity (MIC100, CLSI/NCCLS); assay type: cell-based; details: A. nig., average of three readings, read-out: MIC 100
Description: as §3, §4

Candida albicans = assay: In vitro antifungal activity (MIC100, CLSI/NCCLS); assay type: cell-based; details: C. alb., average of three readings, read-out: MIC 100
Description: as §3, §4

Candida glabrata = assay: In vitro antifungal activity (MIC100, CLSI/NCCLS); assay type: cell-based; details: Nakaseomyces glabratus; C. glab.; average of three readings; read-out: MIC 100
Description: as §3, §4

Cryptococcus neoformans = assay: In vitro antifungal activity (MIC100, CLSI/NCCLS); assay type: cell-based; details: C. neo., average of three readings, read-out: MIC 100
Description: as §3, §4

Fusarium oxysporum = assay: In vitro antifungal activity (MIC100, CLSI/NCCLS); assay type: cell-based; details: F. oxy., average of three readings, read-out: MIC 100
Description: as §3, §4

[3] = NCIM2901, 24 h, read-out: MIC100, S. aureus NCIM-2901, average of three readings

| SMILES | IC50 (DdlB from E.coli) [µM] | MIC (Escherichia coli 1411; Escherichia coli, 1411, 24 h) [µg/mL] | MIC [1] [µg/mL] | MIC [2, 3] [µg/mL] | MIC (A. flavus) [µg/mL] | MIC (Aspergillus fumigates) [µg/mL] | MIC (Aspergillus niger) [µg/mL] | MIC (Candida albicans) [µg/mL] | MIC (Candida glabrata) [µg/mL] | MIC (Cryptococcus neoformans) [µg/mL] | MIC (Fusarium oxysporum) [µg/mL] | melting point [°C] | MIC100 ([2]; S. aureus NCIM-2901, 24 h, average of three readings) [µg/mL] | MIC (Escherichia coli 1411; Escherichia coli, E. coli 1411, 24 h, average of three readings) [µg/mL] | MIC ([2]; NCIM2901, S. aureus NCIM-2901, 24 h, average of three readings, read-out: MIC100) [µg/mL] |
| --- | --- | --- | --- | --- | --- | --- | --- | --- | --- | --- | --- | --- | --- | --- | --- |
| COc1ccc2occ(C3NC(=O)NC(C)=C3C(=O)NN)c(=O)c2c1 (centres unmarked) [Compound 6e, 4-(6-Methoxy-4-oxo-4H-chromen-3-yl)-6-methyl-2-oxo-1,2,3,4-tetrahydropyrimidine-5-carbohydrazide] | 315 | > 60 | 58 (≈ 168 µM) | 156 (≈ 453 µM) | 16 (≈ 46.5 µM) | 32 (≈ 92.9 µM) | 18 (≈ 52.3 µM) | 28 (≈ 81.3 µM) | 30 (≈ 87.1 µM) | 16 (≈ 46.5 µM) | 30 (≈ 87.1 µM) | 208 to 210 |  |  |  |
| CCOC(=O)C1=C(C)NC(=S)NC1c1coc2ccccc2c1=O (centres unmarked) [Compound 4b, Ethyl 6-methyl-4-(4-oxo-4H-chromen-3-yl)-2-thioxo-1,2,3,4-tetrahydropyrimidine-5-carboxylate] | 296 | 50 (≈ 145 µM) | 50 (≈ 145 µM) | 68 (≈ 197 µM) | 66 (≈ 192 µM) | 60 (≈ 174 µM) | 52 (≈ 151 µM) | 64 (≈ 186 µM) | 66 (≈ 192 µM) | 55 (≈ 160 µM) | 58 (≈ 168 µM) | 210 to 212 |  |  |  |
| CC1=C(C(=O)NN)C(c2coc3ccc(F)cc3c2=O)NC(=S)N1 (centres unmarked) [Compound 6d, 4-(6-Fluoro-4-oxo-4H-chromen-3-yl)-6-methyl-2-thioxo-1,2,3,4-tetrahydropyrimidine-5-carbohydrazide] | 111 | 16 (≈ 45.9 µM) | 18 (≈ 51.7 µM) | 32 (≈ 91.9 µM) | 30 (≈ 86.1 µM) | 52 (≈ 149 µM) | 28 (≈ 80.4 µM) | 44 (≈ 126 µM) | 40 (≈ 115 µM) | 28 (≈ 80.4 µM) | 44 (≈ 126 µM) | 146 to 148 | 40 (≈ 115 µM) |  |  |
| CC1=C(C(=O)NN)C(c2coc3ccccc3c2=O)NC(=O)N1 (centres unmarked) [Compound 6a, 6-Methyl-2-oxo-4-(4-oxo-4H-chromen-3-yl)-1,2,3,4-tetrahydropyrimidine-5-carbohydrazide] | 127 | 34 (≈ 108 µM) | 32 (≈ 102 µM) | 66 (≈ 210 µM) | 68 (≈ 216 µM) | 60 (≈ 191 µM) | 55 (≈ 175 µM) | 78 (≈ 248 µM) | 68 (≈ 216 µM) | 58 (≈ 185 µM) | 76 (≈ 242 µM) | 256 to 258 |  |  |  |
| CCOC(=O)C1=C(C)NC(=O)NC1c1coc2ccc(F)cc2c1=O (centres unmarked) [Compound 4c, Ethyl 4-(6-fluoro-4-oxo-4H-chromen-3-yl)-6-methyl-2-oxo-1,2,3,4-tetrahydropyrimidine-5-carboxylate] | 155 | 38 (≈ 110 µM) | 34 (≈ 98.2 µM) | 30 (≈ 86.6 µM) | 58 (≈ 167 µM) | 62 (≈ 179 µM) | 44 (≈ 127 µM) | 52 (≈ 150 µM) | 58 (≈ 167 µM) | 46 (≈ 133 µM) | 58 (≈ 167 µM) | 200 to 202 |  |  |  |
| CCOC(=O)C1=C(C)NC(=O)NC1c1coc2ccccc2c1=O (centres unmarked) [Compound 4a, Ethyl 6-methyl-2-oxo-4-(4-oxo-4H-chromen-3-yl)-1,2,3,4-tetrahydropyrimidine-5-carboxylate] | 158 | 46 (≈ 140 µM) | 40 (≈ 122 µM) | 64 (≈ 195 µM) | 66 (≈ 201 µM) | 65 (≈ 198 µM) | 57 (≈ 174 µM) | > 100 | > 100 | 60 (≈ 183 µM) | 82 (≈ 250 µM) | 270 to 272 |  |  |  |
| N[C@@H]1CON=C1O [D-Cycloserine, reference compound] | 276 |  | 16 (≈ 157 µM) |  |  |  |  |  |  |  |  |  |  | 16 (≈ 157 µM) | 32 (≈ 313 µM) |
| CCOC(=O)C1=C(C)NC(=O)NC1c1coc2ccc(OC)cc2c1=O (centres unmarked) [Compound 4d, Ethyl 4-(6-methoxy-4-oxo-4H-chromen-3-yl)-6-methyl-2-oxo-1,2,3,4-tetrahydropyrimidine-5-carboxylate] | 330 | 55 (≈ 153 µM) | 54 (≈ 151 µM) | > 200 | 20 (≈ 55.8 µM) | 36 (≈ 100 µM) | 20 (≈ 55.8 µM) | 34 (≈ 94.9 µM) | 38 (≈ 106 µM) | 24 (≈ 67 µM) | 36 (≈ 100 µM) | 230 to 232 |  |  |  |
| CCOC(=O)C1=C(C)NC(=S)NC1c1coc2ccc(F)cc2c1=O (centres unmarked) [Compound 4f, Ethyl 4-(6-fluoro-4-oxo-4H-chromen-3-yl)-6-methyl-2-thioxo-1,2,3,4-tetrahydropyrimidine-5-carboxylate] | 280 | 48 (≈ 132 µM) | 44 (≈ 121 µM) | 72 (≈ 199 µM) | 34 (≈ 93.8 µM) | 55 (≈ 152 µM) | 34 (≈ 93.8 µM) | 46 (≈ 127 µM) | 44 (≈ 121 µM) | 30 (≈ 82.8 µM) | 48 (≈ 132 µM) | 228 to 230 |  |  |  |
| CC1=C(C(=O)NN)C(c2coc3ccccc3c2=O)NC(=S)N1 (centres unmarked) [Compound 6b, 6-Methyl-4-(4-oxo-4H-chromen-3-yl)-2-thioxo-1,2,3,4-tetrahydropyrimidine-5-carbohydrazide] | 124 | 34 (≈ 103 µM) | 34 (≈ 103 µM) | 76 (≈ 230 µM) | 60 (≈ 182 µM) | 58 (≈ 176 µM) | 48 (≈ 145 µM) | 64 (≈ 194 µM) | 60 (≈ 182 µM) | 50 (≈ 151 µM) | 54 (≈ 163 µM) | 198 to 200 |  |  |  |
| CCOC(=O)C1=C(C)NC(=S)NC1c1coc2ccc(OC)cc2c1=O (centres unmarked) [Compound 4e, Ethyl 4-(6-methoxy-4-oxo-4H-chromen-3-yl)-6-methyl-2-thioxo-1,2,3,4-tetrahydropyrimidine-5-carboxylate] | 335 | 58 (≈ 155 µM) | > 60 | > 200 | 18 (≈ 48.1 µM) | 34 (≈ 90.8 µM) | 18 (≈ 48.1 µM) | 30 (≈ 80.1 µM) | 32 (≈ 85.5 µM) | 20 (≈ 53.4 µM) | 30 (≈ 80.1 µM) | 222 to 224 |  |  |  |
